Assay results as given in US20220154192A1, “SYSTEM AND METHOD FOR LIGHT-REGULATED OLIGOMERIZATION AND PHASE SEPARATION OF FOLDED DOMAINS AND RNA GRANULE-ASSOCIATED PROTEIN DOMAINS FOR DRUG- BASED SCREENING APPLICATIONS” (The Trustees of Princeton University, priority 2019, published 2022).
“Also recorded” adds a separate entry of the source. *1 amine or outer side, *2 acyl side, *3 side chain or, on linkers, in order; H or OH if unused. Where a SMILES comes first, the peptide text is derived from it. Bridges are numbered along the chain shown (N, C = ends). Roman numbers before positions name the chains, in order. [ ]: non-standard residue; d: D form. Actinocin(9to1) = Cc1c2oc3c(C)ccc(C(=O)[*:1])c3nc-2c(C(=O)[*:2])c(N)c1=O; NMeV = CN[C@H](C(=O)O)C(C)C; Sar = CNCC(=O)O

Tests used:
[1] = system: opto-SGs (optogenetic stress granules) of G3BP ΔNTF2 Corelets in U2OS cells; assay: G3BP ΔNTF2 Corelet opto-SG intracellular phase diagram; format: cell-based, human
Description: To quantitatively interrogate the relationship between RBD valence and the threshold protein complex concentration for stress granule formation, the Corelet system described previously (the cores are comprised of a 24-mer ferritin complex coated by iLID molecules, which serves as an oligomerization platform mediated by blue light-stimulated sspB-iLID interactions, where the sspB-iLID is fused to the IDR regions and RBDs of G3BP) can be utilized to quantitatively map valence and concentration-dependent phase diagrams.
Pre-activation and post-activation images of G3BP KO cells stably expressing the indicated fusion proteins were captured with the mCherry (560) channel only to visualize the sspB component without triggering light-induced dimerization with the iLID-mGFP tagged Ferritin core. Cells were activated with a 488-laser using 1% laser power to cause dimerization of iLID and sspB. Activation of cells was achieved by imaging the mCherry and mGFP channels simultaneously using a 6-second frame interval for an area of 120×120 μm2 (1024×1024 pixels) at Nyquist zoom.
(§1) Cell treatment with arsenite to dissociate polysomes Cells were treated by adding sodium arsenite to cell media at a concentration of 400 μM, which is in excess of saturating concentrations for polysome disassembly (Kedersha et al., 2016). […] Inhibition of polysome disassembly by pre-treating with cycloheximide was added to a final concentration of 100 μg/mL (G3BP KO cells expressing indicated fluorescent fusion proteins). Following 30-minutes of incubation, arsenite was added at a concentration of 400 μM. 1-hour later, cells were assessed for formation of stress granules (GFP-G3BP rescue) or activation cycles were performed (Corelets).
Actinomycin D dissolved in DMSO was used to treat G3BP KO cells expressing indicated Corelets at a concentration of 5 μg/mL. Images were taken 12-18 hours after actinomycin D treatment, a time interval during which nucleoli were no longer apparent by bright field observation and the vast majority of mRNA was expected to be degraded. Final concentration of DMSO was 0.5%. For Actinomycin D plus arsenite experiments, arsenite was added at a concentration of 400 μM˜12 hours following actinomycin D treatment and cells were imaged 1-2 hours subsequently. […] Time point was chosen to maximize the time since treatment (i.e. to reduce RNA cells by as much as possible) without extensive lethality from the drug.
In order to determine precise phase threshold boundaries for intracellular phase diagrams, analyzed cells must feature high variability with respect to sspB-mCherry and iLID-mGFP stoichiometries to sample sufficient core concentrations and valencies. In order to achieve a broad concentration range for both components, G3BP KO cells were transduced in 96-well plates (Cellvis) using an arrayed lentivirus approach. In this protocol, rows varied from 2 to 60 μL iLID-GFP-Fe lentivirus; columns, 2 to 60 μL mCherry-sspB-open reading frame (ORF)/ORF-mCherry-sspB lentivirus. G3BP KO cells were plated directly into the arrayed lentivirus to attain ˜25% confluency upon subsequent attachment to the plastic substrate.

CAPRIN1 RGG Corelets = assay: CAPRIN1 RGG (RBD) Corelet phase separation after RNA depletion; format: cell-based, human; conditions: RNA depletion by Actinomycin D
Description: High valence G3BP RBD nodes (but not dimeric bridges) are sufficient to induce stress granule formation following polysome disassembly, but it is unclear whether this is a unique feature of G3BP or common to RNA-binding nodes that interact with G3BP NTF2. We reasoned that if such NTF2-associated RBPs contribute essential, additive RNA-binding valence to the multi-protein complex, synthetic high valence nodes connected to individual RBDs would nucleate opto-SGs in isolation (i.e. mimic G3BP RBD Corelets). To test this, the RBDs of CAPRIN1 and UBAP2L were oligomerized utilizing the Corelet system, and mapped phase diagrams in both non-treated and arsenite-exposed cells. […] Further, condensate protein composition, P-body attachment, and relative phase thresholds are not determined by the type or number of RNA-binding motifs. […]
In order to determine precise phase threshold boundaries for intracellular phase diagrams, analyzed cells must feature high variability with respect to sspB-mCherry and iLID-mGFP stoichiometries to sample sufficient core concentrations and valencies. […] In this protocol, rows varied from 2 to 60 μL iLID-GFP-Fe lentivirus; columns, 2 to 60 μL mCherry-sspB-open reading frame (ORF)/ORF-mCherry-sspB lentivirus. […]

G3BP KO cells = assay: Lethality of drug treatment in cultured cells (qualitative observation); conditions: arsenite 400 μM; Actinomycin D 5 μg/mL
Protocol: as §1
Actinomycin D dissolved in DMSO was used to treat G3BP KO cells expressing indicated Corelets at a concentration of 5 μg/mL. Images were taken 12-18 hours after actinomycin D treatment, a time interval during which nucleoli were no longer apparent by bright field observation and the vast majority of mRNA was expected to be degraded. Final concentration of DMSO was 0.5%. For Actinomycin D plus arsenite experiments, arsenite was added at a concentration of 400 μM˜12 hours following actinomycin D treatment and cells were imaged 1-2 hours subsequently.

stress granules = assay: Arsenite-induced stress granule formation time course; format: cell-based, human; conditions: arsenite 400 μM
Protocol: as §1

[2] = system: stress granule formation in G3BP KO U2OS cells; assay: G3BP rescue / rescue competition of stress granule formation in G3BP KO U2OS cells; format: cell-based, human; conditions: for rescue of stress granule formation in G3BP KO cells: expressed protein in G3BP KO cells
Protocol: For G3BP rescue competition experiments, an identical arrayed lentivirus approach was used as described in Phase diagram data collection (i.e. 2-60 μL G3BPmCherry and 2-60 μL mGFP-ORF, arrayed 4-wells by 4-wells for 16-wells total of a 96-well plate). G3BP KO cells were plated into lentivirus then combined and passaged 72-hours later.
Live cell confocal microscopy was performed on Day 5 post-transduction. For each condition (GFP-tagged protein of interest), 4 separate experiments (each experiment=1-well/arsenite treatment) were performed on three separate days with numerous technical replicates (fields of view). Live confocal imaging was performed 1-2 hours following arsenite treatment. mCherry and mGFP concentrations were determined similarly as for phase diagrams and manual scoring of stress granule absence or presence was performed. Similar protocols were used to assess rescue in the absence of competition.
The concentration of each cell was determined via manual image segmentation as previously described and absence or presence of stress granules was annotated. To determine a boundary from the data, a support vector machine (SVM) trained using the concentrations of the two components as explanatory variables and the categorical stress granule state as a response variable by applying the fitcsvm( ) function in the MATLAB Statistics and Machine Learning package using the default solver. Briefly, a support vector machine constructs a linear decision surface based on boundary points (‘support vectors’), with the assumption that the data is linearly separable. […]
For each experiment, the concentration of the protein of interest was determined for each cell, and the presence of stress granules was categorized. […] Specifically, the probability density was calculated by binning the concentration distribution using a square root number rule. Within each bin, the probability of having stress granules was calculated as the number of cells with stress granules over the total number of cells in that bin. […]

Molecule: Cc1c2oc3c(C)ccc(C(=O)N[C@@H]4C(=O)N[C@H](C(C)C)C(=O)N5CCC[C@H]5C(=O)N(C)CC(=O)N(C)[C@@H](C(C)C)C(=O)O[C@@H]4C)c3nc-2c(C(=O)N[C@@H]2C(=O)N[C@H](C(C)C)C(=O)N3CCC[C@H]3C(=O)N(C)CC(=O)N(C)[C@@H](C(C)C)C(=O)O[C@@H]2C)c(N)c1=O [Actinomycin D] (I: T[dV]P[Sar][NMeV] / II: T[dV]P[Sar][NMeV]; ester I:1-I:C, II:1-II:C; linker I:N-II:N via Actinocin(9to1))
- formation of opto-SGs ([1]; Actinomycin D 5 μg/mL, 12-18 hours, FIG. 15D): prevents the formation of opto-SGs; also recorded: disrupts the formation of SGs
- phase separation of CAPRIN1 RGG Corelets (CAPRIN1 RGG Corelets): abrogates phase separation
- time after treatment at which cells began to die / treatment was lethal (G3BP KO cells): 30 to 36 h

Molecule: O=[As]O [arsenite, sodium arsenite]
- valence required to drive condensation ([1]; at 0.15 μM Core, arsenite 400 μM, non-stressed cells need valence ~24): ~8
- time by which SG number/size peaked (stress granules): ≤ 45 min
- time after treatment at which cells began to die / treatment was lethal (G3BP KO cells): ~6 h

Molecule: G3BP: stress granule nucleating protein, fluorescently tagged, expressed in G3BP KO cells
- EC50 ([2]; G3BP KO U2OS cells, arsenite, read-out: G3BP concentration for rescue of stress granule formation): 620 nM

Molecule: C[C@@H]1C[C@@H]([C@H](O)CC2CC(=O)NC(=O)C2)C(=O)[C@@H](C)C1 [cycloheximide]
- calculated best-fit phase threshold ([1]; arsenite and cycloheximide, FIG. 15C vs FIG. 15A): almost identical to that of nontreated cells
- arsenite-driven shift in the opto-SG phase diagram ([1]; pre-treatment with cycloheximide 100 μg/mL 30 min, then arsenite 400 μM): negated

Molecule: G3BP F33W: G3BP variant unable to bind USP10 or CAPRIN1
- rescue of stress granule formation in G3BP KO cells [2]: rescues SG formation

B1: CAPRIN1: NTF2-interacting RNA-binding stress granule protein (protein, UniProt Q14444 2-709, looked up)
Caprin-1: PSATSHSGSGSKSSGPPPPSGSSGSEAAAGAGAAAPASQHPATGTGAVQTEAMKQILGVIDKKLRNLEKKKGKLDDYQERMNKGERLNQDQLDAVSKYQEVTNNLEFAKELQRSFMALSQDIQKTIKKTARREQLMREEAEQKRLKTVLELQYVLDKLGDDEVRTDLKQGLNGVPILSEEELSLLDEFYKLVDPERDMSLRLNEQYEHASIHLWDLLEGKEKPVCGTTYKVLKEIVERVFQSNYFDSTHNHQNGLCEEEEAASAPAVEDQVPEAEPEPAEEYTEQSEVESTEYVNRQFMAETQFTSGEKEQVDEWTVETVEVVNSLQQQPQAASPSVPEPHSLTPVAQADPLVRRQRVQDLMAQMQGPYNFIQDSMLDFENQTLDPAIVSAQPMNPTQNMDMPQLVCPPVHSESRLAQPNQVPVQPEATQVPLVSSTSEGYTASQPLYQPSHATEQRPQKEPIDQIQATISLNTDQTTASSSLPAASQPQVFQAGTSKPLHSSGINVNAAPFQSMQTVFNMNAPVPPVNEPETLKQQNQYQASYNQSFSSQPHQVEQTELQQEQLQTVVGTYHGSPDQSHQVTGNHQQPPQQNTGFPRSNQPYYNSRGVSRGGSRGARGLMNGYRGPANGFRGGYDGYRPSFSNTPNSGYTQSQFSAPRDYSGYQRDGYQQNFKRGSGQSGPRGAPRGRGGPPRPNRGMPQMNTQQVN
- rescue of stress granule formation in G3BP KO cells [2]: does not rescue
